Laboratory results reported in patent publication US20140315972A1, “RS)-2-(2-oxo-4-phenylpyrrolidin-1-yl)acetamide compound having modulatory activity with a commensurate effect, pharmaceutical substance (variants) and its application, composition (variants) thereof” (priority 2011, published 2014).
Marks after values point to notes of the source that are not given here.

Tests used:
[1] = tested on: rats; test: Scopolamine-induced CRPA amnesia, preventive and therapeutic use, adult male rats; format: in vivo
From the text: These findings are of great importance. In clinic, medications have to be prescribed more often already in the midst of disorders.

[2] = tested on: rats; test: Alcohol dependence and abstinence, free choice of water and alcohol; format: in vivo
From the text: The antitoxic, sobering and anticraving, activity, as well as the effect of Phenotropil in abstinence was studied on white outbred male rats (weighing 180-220 g) and male mice (weighing 18-24 g) in chronic alcoholism. […] Alcoholized rats after four months of alcoholism and treatment with Phenotropilom voluntarily give up intake of alcohol (anticraving activity) with free choice of water and alcohol (Table 11).

[3] = tested on: patients; test: Amenorrhea in patients on neuroleptic therapy; format: in vivo, human; conditions: tablets 100 or 200 mg per day, 3 months
Method: Investigation of the effect of Phenotropil in amenorrhea and functional dysmenorrhea was conducted on groups of patients aged 14-27 years. The first group (20-27 years) diagnosed with schizophrenia, was on the maintenance neuroleptic therapy and had menstrual cycle irregularities in the form of amenorrhea (for more than 6 months). Of those, 4 had amenorrhea of not established nature, observed also prior to the pronounced primary manifestation of mental disorder, 6 patients had amenorrhea that developed during treatment with neuroleptics. Phenotropil, tablets was administered in doses of 100 mg and 200 mg per day as part of a complex antipsychotic therapy as a corrector of psychogenic side effects of neuroleptics. The dose was selected based on the individual and clinical features of the patients. The duration of Phenotropil therapy was 3 months. Two groups (14-18 years) with functional dysmenorrhea and manifestations of pronounced spastic symptoms were studied. Duration of the Phenotropil monotherapy (50 and 100 mg per day) was one month followed by administration of the drug at one-week courses as a preventive agent. Patients with functional dysmenorrhea were investigated for cAMP level in comparison with the norm control group. The cAMP level was determined using the standard kits, by the method based on the competition with the labeled cyclic 3′,5-adenosine monophosphate in the level of binding with […].

[4] = tested on: mice; test: Hyperkinesis induced by 5-oxytryptophan (negative symptoms of schizophrenia); format: in vivo; conditions: for Number of shakings: mice, 5-oxytryptophan 300 mg/kg i.p.
Method: Studies have been conducted on white outbred male mice (18-24 g), in comparison with the olanzapine (Zyprexa) with intraperitoneal injection.
Phenotropil in all studied doses reduced hyperkinesia (head shakings): at doses of 100 mg/kg—by 88%, at 200 mg/kg—by 87%, and at 300 mg/kg—by 89%. […] Effect of Phenotropil on serotonergic system requires more detailed testing and studies of lower doses, since there is no reason to exclude neuroleptic activity in this test. Preventive or proactive (protective) use of lower doses may be appropriate also in dopaminergic pathology.

[5] = tested on: male subjects; test: Anti-seasick (anti-kinetosis) activity, visual-vestibular effects; format: in vivo, human
Method: Investigations of the anti-seasick (anti-kinetosis) activity of agents with creation of visual-vestibular effects modeling motion sickness were performed on male subjects (23-35 years). Test with continuous exposure to the Coriolis acceleration was performed by rotating vestibulometric chair with angular velocity 180°/s. The eyes of the subject were open, while the optokinetic drum rotated in one direction with the chair with a speed of 90°/s. The time of visual-vestibular effect, vestibulo-vegetative reactions, optokinetic nystagmus before and after kinesia was determined when the drum rotated alternately for two minutes in the R- and S-directions at a speed of 90° s, with a break for 1 minute between rotations, as well as the severity of vestibular effects was measured and the Km was calculated. The studies were conducted 60 minutes after administration of Phenotropil in doses of 25, 50, 100 and 300 mg. Baseline state values and placebo values served as control. Alternate approaches for each participant were performed a week after each previous test. The modulation factor under normal conditions without exposure was 0.97.

[6] = tested on: rats; test: Hypobaric hypoxia in 7-day-old rats; format: in vivo
[7] = Body weight in obese rats, 1 month intragastric course; format: in vivo; conditions: for Body weight (%): change vs control (dist. water) = 100
Method: Investigation of the effect of Phenotropil on body weight at course intragastric administration for 1 month was performed at doses of 25, 50, 100, 200 and 300 mg/kg/day in white outbred rats of both sexes with obvious signs of obesity (380-430 g) without changes in diet and behavior. Each animal was placed in a standard single cell. The body weight, the amount of water and food consumed per day were recorded.

[8] = tested on: mice; test: Hypobaric hypoxia in pressure chamber, adult mice; format: in vivo; conditions: for Duration of life: adult mice, hypobaric hypoxia
[9] = 100.0 mg/kg before training + scopolamine
[10] = 100.0 mg/kg during training and scopolamine
[11] = abstinent rats, 7-month alcoholism, 200 mg/kg, day 3
[12] = abstinent rats, 7-month alcoholism, 200 mg/kg, day 4
[13] = after-effect of 45-day course 100 mg/kg, 1st day
[14] = after-effect of 45-day course 100 mg/kg, 2nd day
[15] = after-effect of 45-day course 100 mg/kg, 3rd day
[16] = rats, 4-month alcoholism, 100 mg/kg, 45th day of administration
[17] = male subjects, 25, 50, 100, 300 mg

## NC(=O)CN1CC(c2ccccc2)CC1=O (racemic) [Compound 1, (RS)-2-(2-oxo-4-phenylpyrrolidine-1-yl)acetamide]
[1]; [9]
  % of animals that did not enter into the dark chamber: 80% *
  LP Pre-training: 17.0 ± 2.9
  LP of the training reproduction: 94.1 ± 8.7
  Number of animals that did not enter into the dark chamber: 16/20
  Time spent in the dark chamber: 49.9 ± 6.9
[1]; [10]
  % of animals that did not enter into the dark chamber: 70% *
  LP Pre-training: 18.4 ± 3.3
  LP of the training reproduction: 91.1 ± 10.1
  Number of animals that did not enter into the dark chamber: 14/20
  Time spent in the dark chamber: 63.4 ± 12.5
[2]; [11]
  Alcohol consumption: 4.8 ± 0.8 mL/day
  Alcohol consumption vs control: −58.6%
[2]; [12]
  Alcohol consumption: 2.4 ± 0.7 mL/day
  Alcohol consumption vs control: −74.0%
[2]; abstinent rats, 7-month alcoholism, 200 mg/kg, day 14
  Alcohol consumption: 0.0 ** ml/day
[2]; [13]
  Alcohol consumption: 3.3 ± 1.1 mL/day
  Water consumption: 26.7 ± 3.9 mL/day
[2]; [14]
  Alcohol consumption: 0.0 ** ml/day
  Water consumption: 20.2 ± 3.3 mL/day
[2]; [15]
  Alcohol consumption: 0.0 ** ml/day
  Water consumption: 21.2 ± 3.5 mL/day
[2]; [16]
  Alcohol consumption: 10.5 ± 4.2 mL/day
  Water consumption: 24.0 ± 5.9 mL/day
[3]
  patients restored, amenorrhea of unknown nature: 30.0%
  patients restored, amenorrhea on antipsychotic therapy: 40.0%
[3]; n=10
  patients with restored menstruations and menstrual cycle: 70%
[4]; 100 mg/kg
  reduction of hyperkinesia (head shakings): 88%
  Number of shakings: 1.4 ± 0.5
[4]; 200 mg/kg
  reduction of hyperkinesia (head shakings): 87%
  Number of shakings: 1.5 ± 0.8
[4]; 300 mg/kg
  reduction of hyperkinesia (head shakings): 89%
  Number of shakings: 1.2 ± 0.5
[5]; humans, 25-300 mg
  NEE, negative effects of exposure: 22.5 ± 7.5 min
  VVE, tolerability of the visual-vestibular effects: 7.70 ± 0.6 min
  VVR, severity of the vestibulo-vegetative reactions: 2.3 ± 0.9 points
[5]; [17]
  improvement of visual-vestibular tolerability vs placebo, average: +80%
  reduction in severity of vestibulo-vegetative reactions vs placebo, average: 68%
[5]; male subjects, placebo 4-6 hours
  duration of negative consequences condition: 15 to 30 min
[6]; 300 mg/kg
  altitude at which tremor was displayed: 11 thousand meters
[6]; 50 and 100 mg/kg (control 7,000 m)
  altitude at which tremor was observed: 10,000 m
[6]; ascension to 11000 m, 50 mg/kg
  Duration of life of animals: 6.9 ± 0.7 min
[6]; ascension to 11000 m, 100 mg/kg
  Duration of life of animals: 6.9 ± 0.7 min
[6]; ascension to 12000 m, 300 mg/kg
  Duration of life of animals: 7.3 ± 0.7 min
[6]; control 11 episodes
  tremor during stay at 11,000 meters for 2 hours: tremor was observed only once
[7]; 25 mg/kg
  Body weight (%): −14.0%
[7]; 25 mg/kg/day i.g. 1 month
  reduction of body weight relative to control: 14%
[7]; 50 mg/kg
  Body weight (%): −25.0 * %
[7]; 50 mg/kg/day i.g. 1 month
  reduction of body weight relative to control: 25%
[7]; 100 mg/kg
  Body weight (%): −33.3 * %
[7]; 100 mg/kg/day i.g. 1 month
  reduction of body weight relative to control: 33.3%
[7]; 200 mg/kg
  Body weight (%): −35.0 * %
[7]; 200 mg/kg/day i.g. 1 month
  reduction of body weight relative to control: 35%
[7]; 300 mg/kg
  Body weight (%): −32.0 * %
[7]; 300 mg/kg/day i.g. 1 month
  reduction of body weight relative to control: 32%
[8]; 50 mg/kg
  increase of survival time vs control: 65.0%
  Duration of life: 3.8 ± 0.5 min
[8]; 100 mg/kg
  increase of survival time vs control: 147.8%
  Duration of life: 5.7 ± 1.2 min
[8]; 300 mg/kg
  increase of survival time vs control: 591.0%
  Duration of life: 15.9 ± 0.4 min
